For test [1] the following is noted: administration to mice; JP H6-65080; cited from earlier work.
In test [2] the test system is active GLP-1 in plasma. The experiment in a line: GLP-1 secretion-stimulating action by combined use of DPP4 inhibitor and sweetener (1), Example 2. Format: in vivo, mouse. To be noted: C57BL/6J mice. Here is the method:
Male SD(CD)/Crj rats (Charles River Laboratories Japan, Inc.) (6-week-old at time of use) or male C57BL/6J mice (Clea Japan, Inc.) (9-week-old at time of use) were used in the test.
These study animals were used in the test after first grouping according to body weight. The animals were orally administered (10 mL/kg) a test DPP4 inhibitor (or purified water as a control). At 30 minutes after administration, the animals were then orally administered (10 mL/kg) a solution of a test sweetener (or purified water as a control) followed by collecting blood samples at 0, 30, 60, 180 and 300 minutes after administration. These samples were then measured for concentrations of active GLP-1 in plasma.
Measurement of plasma active GLP-1 concentrations was carried out in the same manner as (1) of Example 1 above.
The measurement results were tested for the presence of a significant difference between groups by comparing the sweetener-loaded groups with the control group using Dunnett's multiple comparison test (two-sided test). Here, a P value less than 5% was considered statistically significant, and statistical analysis software (EXSAS: Biological Experimental Data Statistical Analysis System, Arm Systex Co., Ltd.) was used to analyze the data.
C57BL/6J mice were used for the study animals. […]

Test [3] is described as follows: Body weight-reducing test using DIO (diet-induced obesity) mice (1), Example 3. In kind it is in vivo, mouse. To be noted: Compound A alone 10 mg/100 g in-feed; high fat diet-fed C57BL/6J mice. How it is done: High fat diet-fed, male C57BL/6J mice (Clea Japan, Inc.) were used in the test.
Fed a high fat diet was carried out by allowing 3-week-old, male C57BL/6J mice (Clea Japan, Inc.) to free access to a high-fat diet having 37.2 w/w % fat content and 5.578 kcal/g calorie level (available from Oriental Yeast Co., Ltd.) for feed. Normal diet control mice were allowed free access to CRF-1 (fat content: 5.7 w/w %, calorie level: 3.59 kcal/g, available from Oriental Yeast Co., Ltd.).
The mice were used in the test after housing to age 39 weeks while fed a high fat diet in this manner.
These study animals were used in the test after first grouping according to body weight and blood sugar level.
The animals were administered test DPP4 inhibitor and test sweetener either orally or in-feed. […]
Body weight and food intake were measured over time after the start of administration of the test substances.
Moreover, in the case body weight-reducing effect was observed, body composition was measured using a laboratory mouse X-ray body fat percentage measuring device (PIXImus2, GE Medical Systems Inc.) under pentobarbital anesthesia (70 mg/kg, i.p.). […]

For test [4], the system named is active GLP-1 in plasma. The experiment in a line: GLP-1 secretion-stimulating action of sweetener in DPP4-deficient rats (blood active GLP-1 level-increasing action), Example 1. In kind it is in vivo, rat. To be noted: sweetener alone 3 to 6 g/kg/10 mL orally; DPP4-deficient F344DucrlCrlj rats. How it is done: Male […] rats (Charles River Laboratories Japan, Inc.) (7 to 10-week-old at time of use) were used for the study animals. […] rats are known to be rats of a strain having a spontaneous DPP4 gene deficiency (Watanabe, et al., Experientia, 1987, 43:400-401). These study animals were used in the test after fasting starting on the night prior to the test and grouping according to body weight. The animals were orally administered (10 mL/kg) a solution of the test sweetener (or purified water as a control) followed by collecting blood samples from the tip of the tail at 0, 30, 60, 180 and 360 minutes after dosing. These samples were then measured for concentrations of active GLP-1 in plasma. Measurement of plasma active GLP-1 concentrations was carried out in the following manner. […] Plasma GLP-1 concentrations were then measured using the Bio-Plex Suspension Array System (Rat Endocrine LINCOplex Kit; available from Linco Research, Inc.) or the Glucagon-like Peptide-1 (Active) ELISA KitTM (available from Linco Research, Inc.; active GLP-1 measurement kit). The measurement results were tested for the presence of a significant difference between groups by comparing the sweetener-loaded group with the control group using Dunnett's multiple comparison test (two-sided test). […] Biological Experimental Data Statistical Analysis System, from Arm Systex Co., Ltd.) was used to analyze the data.

In test [5] the test system is active GLP-1 in plasma. As to the kind of experiment: GLP-1 secretion-stimulating action by combined use of DPP4 inhibitor and sweetener (2), Example 4. In kind it is in vivo, mouse. To be noted: 1 hour after dosing, relative to 100 for Compound A′ and fructooligosaccharide 6 g/kg, C57BL/6J mice. Here is the method: Male C57BL/6J mice (Clea Japan, Inc.) (7-week-old at time of use) were used in the test.
These study animals were used in the test after first fasting starting on the night prior to the test and then grouping according to body weight. The animals were orally administered test DPP4 inhibitor (or purified water as a control) (10 mL/kg). At 30 minutes after administration, the animals were then orally administered (10 mL/kg) a solution of test sweetener (or purified water as a control) followed by collecting blood samples at 0, 30, 60, 180 and 300 minutes after administration. These samples were then measured for concentrations of active GLP-1 in plasma.
Measurement of plasma active GLP-1 concentrations and analysis and testing of the measurement results were carried out in the same manner as (1) of Example 1 above.
Fructooligosaccharide (Meiji Seika Kaisha Ltd.), kestose (Meiji Seika Kaisha Ltd., GF2), raffinose (Wako Pure Chemical Industries, Ltd.), melibiose (Wako Pure Chemical Industries, Ltd.), xylooligosaccharide (Suntory Ltd.), xylose (Wako Pure Chemical Industries, Ltd.), xylitol (Wako Pure Chemical Industries, Ltd.), sorbitol (Wako Pure Chemical Industries, Ltd.), D-mannitol (Wako Pure Chemical Industries, Ltd.), erythritol (Wako Pure Chemical Industries, Ltd.), maltitol (Hayashibara Biochemical Laboratories, Inc.), sucralose (San-Ei Gen F.F.I., Inc.) or acesulfame K (Wako Pure Chemical Industries, Ltd.) was used as sweetener and administered orally (10 mL/kg) at 6 g/kg, 3 g/kg or 1 g/kg.
In addition, (2S)-2-cyano-1-[trans-4-(dimethylaminocarbonyl)cyclohexylamino]acetylpyrrolidine benzenesulfonate (hereafter referred to as Compound A′) as DPP4 inhibitor (or purified water as a control) was used at 10 mg/kg and administered orally (10 mL/kg).
Blood active GLP-1 level-increasing action was tested for the cases of combined use of DPP4 inhibitor and each type of sweetener in accordance with the method described in (1) above (n=4 to 5 animals per group).
Blood active GLP-1 concentrations (1 hour after dosing) in the groups dosed with both each type of sweetener (6 g/kg, 3 g/kg or 1 g/kg) and Compound A′ (10 mg/kg) were represented as relative values with respect to blood active GLP-1 concentrations (1 hour after dosing) in the group dosed with fructooligosaccharide (6 g/kg) and Compound A′.

A further test has as its system GLP-1. The following applies: Shima et al., Acta Endocrinologica 1990; cited from earlier work.
[6] abbreviates: sweetener 6 g/kg orally combined with Compound A′ 10 mg/kg orally.

As to `O=C[C@H](O)[C@@H](O)[C@@H](O)CO` [L-arabinose], the weight gain entry in test [1] is listed as “inhibited weight gain in mice”.
`CN(C)C(=O)[C@H]1CC[C@H](NCC(=O)N2CCC[C@H]2C#N)CC1.Cl` (relative stereo) [Compound A, (2S)-2-cyano-1-[trans-4-(dimethylaminocarbonyl)cyclohexylamino]acetylpyrrolidine hydrochloride]: in the test on active GLP-1 in plasma [2] (Compound A 10 mg/kg orally alone), the “plasma active GLP-1 levels” value is recorded as “no increases in plasma active GLP-1 levels observed”. Moreover, the “body weight as compared with the control group” value in test [3] is “no changes in body weight”.
On to `O=C[C@H](O)[C@@H](O)[C@H](O)CO` [Xylose, xylose], for which the “levels of active GLP-1 in plasma as compared with the control group” value with active GLP-1 in plasma [4] is reported as “remarkably high values”. The “levels of active GLP-1 in plasma in comparison with the control group” value in the test on active GLP-1 in plasma [2] (sweetener 6 g/kg orally combined with Compound A 10 mg/kg orally, fructooligosaccharide: at 30, 60, 180 and 300 minutes) is recorded as “remarkable increases in plasma active GLP-1 levels were observed”. Moreover, the “Plasma active GLP-1 concentration (relative value)” value in the test on active GLP-1 in plasma [5] (setting [6]) is 597.
With `OC[C@@H](O)[C@@H](O[C@H]1O[C@H](CO)[C@@H](O)[C@H](O)[C@H]1O)[C@H](O)[C@@H](O)CO` [Maltitol, α-D-glucopyranosyl-(1→4)-D-glucitol], the “Plasma active GLP-1 concentration (relative value)” value in the test with active GLP-1 in plasma [5] (setting [6]) stood at 422. Besides, the “blood GLP-1 levels following administration” value in the test with GLP-1 is “blood GLP-1 levels are increased”.
For the compound `OC[C@H]1O[C@@](CO)(O[C@H]2O[C@H](CO)[C@@H](O)[C@H](O)[C@H]2O)[C@@H](O)[C@@H]1O` [sucrose], the “blood GLP-1 levels following administration” value with GLP-1 was “blood GLP-1 levels are increased”.
For the compound `O=C[C@H](O)[C@@H](O)[C@@H](O)[C@H](O)CO` [D-galactose], in the test on GLP-1, the “blood GLP-1 levels following administration” value is “blood GLP-1 levels are increased”.
Regarding `O=C[C@H](O)[C@@H](O)[C@H](O)[C@H](O)CO` [D-glucose], the “blood GLP-1 levels following administration” value in the test on GLP-1 was “blood GLP-1 levels are increased”.
With `OC[C@@H](O)[C@H](O)[C@@H](O)CO` [Xylitol, xylitol], the “levels of active GLP-1 in plasma as compared with the control group” value in the test with active GLP-1 in plasma [4] is given as “remarkably high values”. Besides, the “Plasma active GLP-1 concentration (relative value)” value turned out to be 272 with active GLP-1 in plasma [5] (sweetener 3 g/kg orally combined with Compound A′ 10 mg/kg orally) and 774 in the test on active GLP-1 in plasma [5] (setting [6]).

These data come from patent publication US8927504B2, “Combined use of dipeptidyl peptidase 4 inhibitor and sweetener” (Mitsubishi Tanabe Pharma Corporation, priority 2007, dated 2015).
